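Briefly, cells in 96-well plates were exposed to five compound concentrations for 48 h, and endpoints were estimated by linear interpolation. GI50 = concentration required for 50% inhibition of growth. At the TGI there is no net growth.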
Tests used:
Assay in all cases: DTP human tumour cell line panel, 48 h
786-0 renal = system: 786-0 renal
CAKI-1 renal = system: CAKI-1 renal
EKVX NSCLC = system: EKVX NSCLC
HOP-92 NSCLC = system: HOP-92 NSCLC
MOLT-4 leukemia = system: MOLT-4 leukemia
OVCAR-3 ovarian = system: OVCAR-3 ovarian
SK-MEL-28 melanoma = system: SK-MEL-28 melanoma
SN12C renal = system: SN12C renal
SW-620 colon = system: SW-620 colon
UACC-257 melanoma = system: UACC-257 melanoma

Row | Structure (SMILES) | TGI (786-0 renal) [µM] | TGI (CAKI-1 renal) [µM] | TGI (EKVX NSCLC) [µM] | TGI (HOP-92 NSCLC) [µM] | TGI (MOLT-4 leukemia) [µM] | TGI (OVCAR-3 ovarian) [µM] | TGI (SK-MEL-28 melanoma) [µM] | TGI (SN12C renal) [µM] | TGI (SW-620 colon) [µM] | GI50 (786-0 renal) [µM] | GI50 (CAKI-1 renal) [µM] | GI50 (EKVX NSCLC) [µM] | GI50 (HOP-92 NSCLC) [µM] | GI50 (SN12C renal) [µM] | GI50 (SW-620 colon) [µM] | GI50 (UACC-257 melanoma) [µM] | TGI (UACC-257 melanoma) [µM] | GI50 (MOLT-4 leukemia) [µM] | GI50 (OVCAR-3 ovarian) [µM] | GI50 (SK-MEL-28 melanoma) [µM]
1 | CSc1nc(SC)c2c(C)cn(Cc3ccccc3)c2n1 | > 100 | > 100 | > 100 | > 100 | > 100 | > 100 | > 100 | > 100 | > 100 | – | – | – | – | – | – | – | – | – | – | –
2 | Cc1cn2c(/C=N/NC3=NCCN3)c(-c3ccc(Cl)c([N+](=O)[O-])c3)nc2s1 | 2.5 | 10 | 10.8 | 2.82 | – | – | – | 1.96 | 2.46 | 0.908 | 1.98 | 3.07 | 0.776 | 0.942 | 0.941 | 1.6 | 7.24 | – | – | –
3 | Cc1cc2c(=O)cc(-c3ccc(Cl)c(Cl)c3)oc2c(C(=O)O)c1C | > 100 | > 100 | > 100 | – | > 100 | > 100 | > 100 | > 100 | > 100 | – | – | – | – | – | – | – | > 100 | – | – | –
4 | OC1CCC(COC(c2ccccc2)(c2ccccc2)c2ccccc2)O1 (stereo unspecified) | 35.2 | 30.9 | > 10 | – | 35.2 | 32.4 | 33.4 | 38.6 | 37.2 | – | – | – | – | – | – | – | 34.1 | – | – | –
5 | CCOc1ccc(N=C2NC(=O)C(CC(=O)Nc3ccc(Cl)cc3Cl)S2)cc1 (stereo unspecified) | > 100 | > 100 | > 100 | – | > 100 | > 100 | > 100 | > 100 | > 100 | – | – | – | – | – | – | – | > 100 | – | – | –
6 | COC1OC(CO)C(O)C(NC(=O)N(C)N=O)C1O (stereo unspecified) | > 100 | > 100 | > 100 | > 100 | > 100 | > 100 | > 100 | > 100 | > 100 | – | – | – | – | – | – | – | – | – | – | –
7 | Cc1ccccc1C(C#N)/C(=N/NC(N)=S)C(=O)Nc1c(C)cccc1C (stereo unspecified) | > 100 | – | > 100 | > 100 | > 100 | > 100 | > 100 | > 100 | > 100 | – | – | – | – | – | – | – | > 100 | – | – | –
8 | Cc1cc2c(=O)cc(-c3ccc(Cl)cc3Cl)oc2c(C(=O)O)c1C | > 100 | > 100 | > 100 | – | > 100 | > 100 | > 100 | > 100 | > 100 | – | – | – | – | – | – | – | > 100 | – | – | –
9 | Nc1cc2c(c3ccccc13)C(CCl)CN2C(=O)c1cc2cc(NC(=O)c3cc4ccccc4o3)ccc2[nH]1 (stereo unspecified) | > 1100 | < 0.11 | 0.43 | – | – | – | – | 1.67 | – | > 0.11 | > 0.11 | – | – | > 0.11 | – | – | – | – | – | –
10 | CN(CCNc1ccc(C(=N)N)cc1)c1ccc(C(=N)N)cc1 | > 100 | 37.3 | > 100 | – | > 100 | > 100 | > 100 | > 100 | > 100 | > 100 | 2.7 | 20 | – | 5.53 | > 100 | 35.1 | > 100 | > 100 | 37.3 | 36.4
11 | CC(=O)N[C@@H](Cc1ccc(OP(=O)(O)O)cc1)C(=O)N[C@H]1CCC(=O)N2CCC[C@@H](C(=O)NCc3cccc4ccccc34)N2C1=O | > 25 | > 25 | – | – | > 25 | > 25 | > 25 | > 25 | > 25 | > 25 | > 25 | – | – | > 25 | > 25 | > 25 | > 25 | > 25 | > 25 | > 25
12 | CC(=O)Nc1ccc(S(=O)(=O)N/N=C/c2cc(I)cc([N+](=O)[O-])c2O)cc1 | > 100 | > 100 | > 100 | – | > 100 | > 100 | 98.7 | > 100 | > 100 | – | – | – | – | – | – | – | > 100 | – | – | –
13 | C=CCC1=C2CCCCC2CCC1=O (stereo unspecified) | > 100 | > 100 | > 100 | – | > 100 | > 100 | > 100 | > 100 | > 100 | – | – | – | – | – | – | – | > 100 | – | – | –
14 | O=C(Cc1c(C(=O)Nc2ccccc2)sc(C(=O)Nc2ccccc2)c1CC(=O)Nc1ccccc1)Nc1ccccc1 | > 100 | > 100 | > 100 | > 100 | – | > 100 | 19.8 | > 100 | > 100 | – | – | – | – | – | – | – | > 100 | – | – | –
15 | COc1ccc(/C=C/C(=O)c2ccc(B(O)O)cc2)cc1O | 53.7 | > 70.8 | – | 29.8 | > 100 | 20.1 | > 89.5 | > 77.7 | 22 | 18.7 | 17.7 | – | 3.46 | 20.1 | 3.83 | 21.6 | 59.3 | 10.9 | 7.27 | 22.3
16 | Fc1ccc(-c2nn3c(COc4ccccc4Cl)nnc3s2)cc1Oc1ccccc1 | 46.7 | 44 | > 100 | 45.6 | – | 52.5 | > 100 | 56.6 | > 100 | 21.3 | 19.4 | 49 | 15.2 | 20.8 | > 100 | > 100 | > 100 | – | 22.5 | 54.6
17 | O=C1/C(=C\c2ccc(Cl)cc2)CN(C(=O)c2ccccc2)C/C1=C\c1ccc(Cl)cc1 | 4.6 | > 100 | – | 55.9 | > 100 | 5.49 | 9.68 | 5.4 | 5.01 | 2.19 | 8.45 | – | 7.18 | 2.16 | 1.75 | 5.51 | 33.9 | 4.25 | 2.43 | 2.94
18 | Cc1ccc([I+]c2ccc(C)cc2)cc1 | > 100 | 71.4 | 42.5 | > 100 | – | > 100 | > 100 | > 100 | > 100 | 28.8 | 4.55 | 0.484 | 4.69 | 18.6 | 3.94 | 2.71 | 57.4 | – | 7.63 | 10.6
19 | Cc1cc2c(=O)cc(-c3ccc(C(=O)O)cc3)oc2c(C(N)=O)c1C | > 100 | – | > 100 | > 100 | > 100 | > 100 | > 100 | > 100 | > 100 | – | – | – | – | – | – | – | > 100 | – | – | –

— PubChem BioAssay (NCI)
